{"source": "ChEMBL document CHEMBL3227939", "about": "“Synthesis of daunorubicin analogues with novel 9-acyl substituents” (1979)", "key": {"[1]": {"tested_on": "L1210", "assay": "Inhibition of RNA synthesis in mouse L1210 cells", "type": "functional", "conditions": "read-out: ED50 (the source's name)"}, "[2]": {"tested_on": "L1210", "assay": "Inhibition of DNA synthesis in mouse L1210 cells", "type": "functional", "conditions": "read-out: ED50 (the source's name)"}, "[3]": {"tested_on": "P388", "assay": "Antitumor activity against mouse P388 cells allografted in CDF/RDF mouse assessed as increase in survival time at 4 mg/kg, ip administered once daily on days 1 to 9 relative to control", "type": "functional", "conditions": "route intraperitoneal"}, "[4]": {"tested_on": "Calf thymus DNA", "assay": "Binding affinity to calf thymus DNA assessed as change in melting temperature", "type": "nucleic-acid assay", "conditions": "Bos taurus"}, "[5]": {"tested_on": "P388", "assay": "Antitumor activity against mouse P388 cells allografted in CDF/RDF mouse assessed as increase in survival time at 50 mg/kg, ip administered once daily on day 5, 9 and 13 relative to control", "type": "functional", "conditions": "route intraperitoneal"}, "[6]": {"tested_on": "P388", "assay": "Antitumor activity against mouse P388 cells allografted in CDF/RDF mouse assessed as increase in survival time at 12.5 mg/kg, ip administered once daily on day 5, 9 and 13 relative to control", "type": "functional", "conditions": "route intraperitoneal"}, "[7]": {"tested_on": "P388", "assay": "Antitumor activity against mouse P388 cells allografted in CDF/RDF mouse assessed as increase in survival time at 37.5 mg/kg, ip administered once daily on day 5, 9 and 13 relative to control", "type": "functional", "conditions": "route intraperitoneal"}, "[8]": {"tested_on": "P388", "assay": "Antitumor activity against mouse P388 cells allografted in CDF/RDF mouse assessed as increase in survival time at 3.13 mg/kg, ip administered once daily on days 1 to 9 relative to control", "type": "functional", "conditions": "route intraperitoneal"}}}
{"smiles": "COc1cccc2c1C(=O)c1c(O)c3c(c(O)c1C2=O)C[C@@](O)(C(=O)CO)C[C@@H]3O[C@H]1C[C@H](N)[C@H](O)[C@H](C)O1", "note": "[DOXORUBICIN]", "values": [{"measurement": "EC50", "setting": "[1]", "result": 580, "unit": "nM"}, {"measurement": "EC50", "setting": "[2]", "result": 1500, "unit": "nM"}]}
{"smiles": "COc1cccc2c1C(=O)c1c(O)c3c(c(O)c1C2=O)C[C@@](O)(C=O)C[C@@H]3O[C@H]1C[C@H](N)[C@H](O)[C@H](C)O1", "values": [{"measurement": "T/C", "setting": "[3]", "result": 169, "unit": "%"}, {"measurement": "EC50", "setting": "[1]", "result": 2000, "unit": "nM"}, {"measurement": "EC50", "setting": "[2]", "result": 4100, "unit": "nM"}, {"measurement": "ΔTm", "setting": "[4]", "result": 6.5, "unit": "°C"}, {"measurement": "T/C", "setting": "[5]", "result": 154, "unit": "%"}]}
{"smiles": "CCC(=O)[C@]1(O)Cc2c(O)c3c(c(O)c2[C@@H](O[C@H]2C[C@H](N)[C@H](O)[C@H](C)O2)C1)C(=O)c1c(OC)cccc1C3=O", "values": [{"measurement": "EC50", "setting": "[1]", "result": 290, "unit": "nM"}, {"measurement": "T/C", "setting": "[6]", "result": 128, "unit": "%"}, {"measurement": "EC50", "setting": "[2]", "result": 670, "unit": "nM"}, {"measurement": "ΔTm", "setting": "[4]", "result": 11, "unit": "°C"}]}
{"smiles": "COc1cccc2c1C(=O)c1c(O)c3c(c(O)c1C2=O)C[C@@](O)(C(=O)C(C)C)C[C@@H]3O[C@H]1C[C@H](N)[C@H](O)[C@H](C)O1", "values": [{"measurement": "T/C", "setting": "[7]", "result": 122, "unit": "%"}, {"measurement": "EC50", "setting": "[1]", "result": 400, "unit": "nM"}, {"measurement": "EC50", "setting": "[2]", "result": 1000, "unit": "nM"}, {"measurement": "ΔTm", "setting": "[4]", "result": 10.3, "unit": "°C"}, {"measurement": "T/C", "setting": "[8]", "result": 117, "unit": "%"}]}
{"smiles": "COc1cccc2c1C(=O)c1c(O)c3c(c(O)c1C2=O)C[C@@](O)(C(=O)CCc1ccccc1)C[C@@H]3O[C@H]1C[C@H](N)[C@H](O)[C@H](C)O1", "values": [{"measurement": "EC50", "setting": "[1]", "result": 1600, "unit": "nM"}, {"measurement": "EC50", "setting": "[2]", "result": 1500, "unit": "nM"}, {"measurement": "ΔTm", "setting": "[4]", "result": 8.6, "unit": "°C"}, {"measurement": "T/C", "setting": "[5]", "result": 129, "unit": "%"}]}
{"smiles": "COc1cccc2c1C(=O)c1c(O)c3c(c(O)c1C2=O)C[C@@](O)(C(C)=O)C[C@@H]3O[C@H]1C[C@H](N)[C@H](O)[C@H](C)O1", "note": "[DAUNORUBICIN]", "values": [{"measurement": "EC50", "setting": "[1]", "result": 330, "unit": "nM"}, {"measurement": "EC50", "setting": "[2]", "result": 660, "unit": "nM"}]}
